Test results taken from patent US20230312550A1, “N-(2-(4-CYANOTHIAZOLIDIN-3-YL)-2-OXOETHYL)-QUINOLINE-4-CARBOXAMIDES” (AstraZeneca AB, priority 2020, published 2023).
≈ marks a conversion by molar mass, not a printed value.

Experiments:
[1] = biological target: FAP (Homo sapiens (Human), UniProt Q12884); test: hFAP inhibition assay; format: biochemical; details: hFAP […], Ala-Pro-AMC 20 μM; n = 1 or geometric mean n = 2-3
Description: 384 low volume black plates (Greiner #784076) were used. 4 μL, 0.48 nM enzyme solution (100 mM Tris HCl, 100 mM NaCl, 0.05% Chaps, pH 7.4) was added to 40 nL compounds (in DMSO) at 10 CR, 3 fold dilution series from 50 μM FAC. Plates were incubated for 15 min at rt in dark. 4 μL, 40 μM substrate solution (100 mM Tris HCl, 100 mM NaCl, 0.05% Chaps, pH 7.4) was added to each well. Plates were centrifuged at 1000 rpm and incubated for 30 min at rt in dark. The plates were read on a PHERAstar® reader with excitation 340 nm and emission 460 nm. Data were analyzed in Genedata Screener®. IC50 values were determined by plotting % inhibition versus log compound concentration and using a one site dose response model.

[2] = biological target: human Fibroblast activation protein alpha (hFAP) (Homo sapiens (Human), UniProt Q12884); test: hFAP inhibition assay (tight binders); format: biochemical; details: Ala-Pro-AMC 20 μM, n = 1 or geometric mean n = 2-6; also: hFAP 2.4 pM
Description: The plates were read on a PHERAstar® reader with excitation 340 nm and emission 460 nm. Data were analyzed in Genedata Screener®. IC50 values were determined by plotting % inhibition versus log compound concentration and using a one site dose response model.

[3] = biological target: hFAP (M39-A757) (Homo sapiens (Human), UniProt Q12884); test: hFAP binding assay (surface plasmon resonance); details: SPR, 20° C.; for hFAP Binding assay k(off) / hFAP Binding assay k(on): single cycle kinetics; for Kd: n = 1 or geometric mean n = 2-4
[4] = biological target: Prolyl endopeptidase, Prolyl Oligopeptidase (hPREP) (Homo sapiens (Human), UniProt P48147); test: hPrep inhibition assay; format: biochemical; details: hPREP 0.6 nM, Z-Gly-Pro-amino-methylcoumarin 50 μM; read-out: PREP IC50
How it was run: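 Recombinant human PREP at 0.6 nM final with Z-Gly-Pro-AMC substrate at 50 μM final in Tris-HCl pH 7.5, NaCl, Triton X-100, glutathione; 15 min rt preincubation then 20 min rt reaction in dark. AMC fluorescence (ex 340/em 460 nm); IC50 from one-site dose-response fit of % inhibition.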

[5] = Kinetic solubility; details: kinetic from dmso stock
Description: Kinetic solubility was measured as described in Comput Aided Mol Des 2015, 29, 795.

[6] = Metabolic stability in rat hepatocytes (rHep); details: n = 1 or geometric mean of n = 2-3
[7] = Metabolic stability in human liver microsomes (HLM); details: human
Description: Metabolic stability in HLM was measured as described in J Comput Aided Mol Des 2015, 29, 795.

[8] = Solubility, kinetic solubility, n = 1 or average of n = 2-3
[9] = HLM CLint, n = 1 or average of n = 2-3

Sequence of Prolyl endopeptidase, Prolyl Oligopeptidase (hPREP) (P48147 whole entry): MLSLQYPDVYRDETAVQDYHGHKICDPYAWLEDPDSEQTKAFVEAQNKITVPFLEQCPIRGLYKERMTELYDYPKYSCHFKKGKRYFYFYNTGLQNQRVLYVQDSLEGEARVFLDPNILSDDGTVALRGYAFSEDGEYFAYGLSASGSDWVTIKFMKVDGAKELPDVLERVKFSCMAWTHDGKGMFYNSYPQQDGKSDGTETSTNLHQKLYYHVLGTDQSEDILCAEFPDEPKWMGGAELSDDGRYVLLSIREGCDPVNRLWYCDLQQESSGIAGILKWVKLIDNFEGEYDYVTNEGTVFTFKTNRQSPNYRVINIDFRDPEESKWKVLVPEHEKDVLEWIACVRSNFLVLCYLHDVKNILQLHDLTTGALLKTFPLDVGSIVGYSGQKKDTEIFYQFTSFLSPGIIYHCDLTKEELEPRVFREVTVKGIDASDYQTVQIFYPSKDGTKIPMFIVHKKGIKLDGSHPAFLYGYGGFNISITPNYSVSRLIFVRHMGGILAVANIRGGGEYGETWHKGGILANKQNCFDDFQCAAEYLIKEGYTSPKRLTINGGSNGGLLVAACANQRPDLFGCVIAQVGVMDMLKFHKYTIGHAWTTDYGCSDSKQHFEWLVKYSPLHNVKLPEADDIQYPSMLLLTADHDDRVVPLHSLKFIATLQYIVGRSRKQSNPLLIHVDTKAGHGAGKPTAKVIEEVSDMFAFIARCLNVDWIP
Sequence of hFAP (M39-A757) (Q12884 39-757): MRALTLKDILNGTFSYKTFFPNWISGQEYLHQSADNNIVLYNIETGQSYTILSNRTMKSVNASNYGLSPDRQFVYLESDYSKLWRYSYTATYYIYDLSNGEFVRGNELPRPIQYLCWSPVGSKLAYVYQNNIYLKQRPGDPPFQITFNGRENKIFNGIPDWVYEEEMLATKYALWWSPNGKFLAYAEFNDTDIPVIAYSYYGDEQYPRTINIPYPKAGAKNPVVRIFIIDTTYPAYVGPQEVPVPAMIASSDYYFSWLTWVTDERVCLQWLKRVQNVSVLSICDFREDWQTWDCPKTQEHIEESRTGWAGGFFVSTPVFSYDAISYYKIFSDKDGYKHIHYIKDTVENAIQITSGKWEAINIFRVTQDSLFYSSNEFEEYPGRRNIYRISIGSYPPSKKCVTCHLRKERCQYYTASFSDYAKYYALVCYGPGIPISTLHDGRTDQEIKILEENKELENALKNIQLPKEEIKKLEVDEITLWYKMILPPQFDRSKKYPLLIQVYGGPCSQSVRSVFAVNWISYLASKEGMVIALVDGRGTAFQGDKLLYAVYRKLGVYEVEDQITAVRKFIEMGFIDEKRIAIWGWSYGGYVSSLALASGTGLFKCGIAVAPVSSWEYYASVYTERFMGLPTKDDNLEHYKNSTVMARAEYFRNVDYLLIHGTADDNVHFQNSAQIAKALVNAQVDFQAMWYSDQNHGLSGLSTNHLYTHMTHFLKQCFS
Sequence of FAP (Q12884 38-760): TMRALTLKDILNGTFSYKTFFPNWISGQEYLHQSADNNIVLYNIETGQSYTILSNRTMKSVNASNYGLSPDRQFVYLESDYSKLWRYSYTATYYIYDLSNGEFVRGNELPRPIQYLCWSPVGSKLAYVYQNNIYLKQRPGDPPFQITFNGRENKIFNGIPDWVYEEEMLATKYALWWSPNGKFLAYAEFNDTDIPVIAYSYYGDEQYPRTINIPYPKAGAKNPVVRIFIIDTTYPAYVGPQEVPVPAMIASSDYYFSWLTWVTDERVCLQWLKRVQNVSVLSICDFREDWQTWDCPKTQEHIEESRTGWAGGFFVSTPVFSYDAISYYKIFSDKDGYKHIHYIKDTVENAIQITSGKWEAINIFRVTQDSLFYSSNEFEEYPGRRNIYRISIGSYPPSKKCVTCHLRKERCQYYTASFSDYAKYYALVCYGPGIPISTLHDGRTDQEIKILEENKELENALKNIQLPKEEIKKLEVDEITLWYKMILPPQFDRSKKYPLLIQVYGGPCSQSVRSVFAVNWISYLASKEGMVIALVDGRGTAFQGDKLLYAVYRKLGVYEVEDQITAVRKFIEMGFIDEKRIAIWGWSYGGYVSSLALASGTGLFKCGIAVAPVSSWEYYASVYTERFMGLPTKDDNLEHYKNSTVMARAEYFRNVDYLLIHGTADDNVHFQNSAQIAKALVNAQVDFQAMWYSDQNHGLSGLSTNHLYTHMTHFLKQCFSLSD
Sequence of human Fibroblast activation protein alpha (hFAP) (Q12884 38-760): as above

N#C[C@@H]1CSCN1C(=O)CNC(=O)c1ccnc2ccc(N3CC(F)(C4CC4)C3)cc12 [Example 31, (R)—N-(2-(4-Cyanothiazolidin-3-yl)-2-oxoethyl)-6-(3-cyclopropyl-3-fluoroazetidin-1-yl)quinoline-4-carboxamide]
IC50 [1]: 0.22 nM | IC50 [2]: 0.1 nM | hFAP Binding assay k(off) [3]: 0.00024 s⁻¹ | hFAP Binding assay k(on) [3]: 9700000 M⁻¹ s⁻¹ | Kd [3]: 0.031 nM | IC50 [4]: 760 nM | solubility [5, 8]: 180 µM (≈ 79.1 µg/mL) | rHep CLint [6]: 14 μL/min/1E6 | microsomal CLint [7, 9]: 45 µL/min/mg

N#C[C@@H]1CSCN1C(=O)CNC(=O)c1ccnc2ccc(N3CCC4(CC4)C3)cc12 [Example 49, (R)—N-(2-(4-Cyanothiazolidin-3-yl)-2-oxoethyl)-6-(5-azaspiro[2.4]heptan-5-yl)quinoline-4-carboxamide]
IC50 [1]: 0.19 nM | IC50 [2]: 0.041 nM | hFAP Binding assay k(off) [3]: 0.00017 s⁻¹ | hFAP Binding assay k(on) [3]: 8800000 M⁻¹ s⁻¹ | Kd [3]: 0.02 nM | IC50 [4]: 340 nM | solubility [5]: 13 µM (≈ 5.48 µg/mL) | rHep CLint [6]: 48 μL/min/1E6 | microsomal CLint [7]: 58 µL/min/mg

N#C[C@@H]1CSCN1C(=O)CNC(=O)c1ccnc2ccc(-c3ccc(F)cn3)cc12 [Example 125, (R)—N-(2-(4-Cyanothiazolidin-3-yl)-2-oxoethyl)-6-(5-fluoropyridin-2-yl)quinoline-4-carboxamide]
IC50 [1]: 0.21 nM | IC50 [2]: 0.046 nM | hFAP Binding assay k(off) [3]: 0.00014 s⁻¹ | hFAP Binding assay k(on) [3]: 3000000 M⁻¹ s⁻¹ | Kd [3]: 0.048 nM | IC50 [4]: 120 nM | solubility [5, 8]: 38 µM (≈ 16 µg/mL) | rHep CLint [6]: 7.4 μL/min/1E6 | microsomal CLint [7, 9]: 14 µL/min/mg

C[C@H]1CCCN1c1ccc2nccc(C(=O)NCC(=O)N3CSC[C@H]3C#N)c2c1 [Example 65, N-(2-((R)-4-Cyanothiazolidin-3-yl)-2-oxoethyl)-6-((S)-2-methylpyrrolidin-1-yl)quinoline-4-carboxamide]
IC50 [1]: 0.28 nM | IC50 [2]: 0.17 nM | hFAP Binding assay k(off) [3]: 0.00047 s⁻¹ | hFAP Binding assay k(on) [3]: 6700000 M⁻¹ s⁻¹ | Kd [3]: 0.055 nM | IC50 [4]: 100 nM | solubility [5, 8]: 49 µM (≈ 20.1 µg/mL) | rHep CLint [6]: 110 μL/min/1E6 | microsomal CLint [7, 9]: 150 µL/min/mg

CC1(C)CCN(c2ccc3nccc(C(=O)NCC(=O)N4CSC[C@H]4C#N)c3c2)C1 [Example 48, (R)—N-(2-(4-Cyanothiazolidin-3-yl)-2-oxoethyl)-6-(3,3-dimethylpyrrolidin-1-yl)quinoline-4-carboxamide]
IC50 [1]: 0.29 nM | IC50 [2]: 0.11 nM | hFAP Binding assay k(off) [3]: 0.000089 s⁻¹ | hFAP Binding assay k(on) [3]: 1400000 M⁻¹ s⁻¹ | Kd [3]: 0.067 nM | IC50 [4]: 170 nM | solubility [5, 8]: 18 µM (≈ 7.62 µg/mL) | rHep CLint [6]: 51 μL/min/1E6 | microsomal CLint [7, 9]: 89 µL/min/mg

C[C@H]1CCN(c2ccc3nccc(C(=O)NCC(=O)N4CSC[C@H]4C#N)c3c2)CCO1 [Example 62, N-(2-((R)-4-Cyanothiazolidin-3-yl)-2-oxoethyl)-6-((S)-7-methyl-1,4-oxazepan-4-yl)quinoline-4-carboxamide]
IC50 [1]: 0.25 nM | IC50 [2]: 0.058 nM | hFAP Binding assay k(off) [3]: 0.000085 s⁻¹ | hFAP Binding assay k(on) [3]: 710000 M⁻¹ s⁻¹ | Kd [3]: 0.12 nM | IC50 [4]: 280 nM | solubility [5, 8]: 640 µM (≈ 281 µg/mL) | rHep CLint [6]: 46 μL/min/1E6 | microsomal CLint [7, 9]: 31 µL/min/mg

C[C@@H]1CCN(c2ccc3nccc(C(=O)NCC(=O)N4CSC[C@H]4C#N)c3c2)C1 [Example 55, N-(2-((R)-4-Cyanothiazolidin-3-yl)-2-oxoethyl)-6-((R)-3-methylpyrrolidin-1-yl)quinoline-4-carboxamide]
IC50 [1]: 0.25 nM | IC50 [2]: 0.083 nM | hFAP Binding assay k(off) [3]: 0.00025 s⁻¹ | hFAP Binding assay k(on) [3]: 6700000 M⁻¹ s⁻¹ | Kd [3]: 0.036 nM | IC50 [4]: 440 nM | solubility [5, 8]: 11 µM (≈ 4.5 µg/mL) | rHep CLint [6]: 63 μL/min/1E6 | microsomal CLint [7, 9]: 55 µL/min/mg

Cc1cccc(C2CN(c3ccc4nccc(C(=O)NCC(=O)N5CSC[C@H]5C#N)c4c3)C2)c1 [Example 186, (R)—N-(2-(4-Cyanothiazolidin-3-yl)-2-oxoethyl)-6-(3-(m-tolyl)azetidin-1-yl)quinoline-4-carboxamide]
IC50 [1]: 0.27 nM | IC50 [2]: 0.1 nM | Kd [3]: 0.045 nM | IC50 [4]: 150 nM | solubility [5, 8]: 130 µM (≈ 61.3 µg/mL) | rHep CLint [6]: 24 μL/min/1E6 | microsomal CLint [7, 9]: 70 µL/min/mg

N#C[C@@H]1CSCN1C(=O)CNC(=O)c1ccnc2ccc(N3CCOCC3)c(Cl)c12 [Example 101, (R)-5-Chloro-N-(2-(4-cyanothiazolidin-3-yl)-2-oxoethyl)-6-morpholino-quinoline-4-carboxamide]
IC50 [1]: 0.38 nM | IC50 [2]: 0.35 nM | hFAP Binding assay k(off) [3]: 0.000025 s⁻¹ | hFAP Binding assay k(on) [3]: 740000 M⁻¹ s⁻¹ | Kd [3]: 0.034 nM | IC50 [4]: 380 nM | solubility [5, 8]: > 1000 µM | rHep CLint [6]: 2.3 μL/min/1E6 | microsomal CLint [7, 9]: 8.6 µL/min/mg

N#C[C@@H]1CSCN1C(=O)CNC(=O)c1ccnc2ccc(N3CC4(CC4)C[C@@H]3CF)cc12 [Example 58, N-(2-((R)-4-Cyanothiazolidin-3-yl)-2-oxoethyl)-6-((R)-6-(fluoromethyl)-5-azaspiro[2.4]heptan-5-yl)quinoline-4-carboxamide]
IC50 [1]: 0.23 nM | IC50 [2]: 0.076 nM | hFAP Binding assay k(off) [3]: 0.091 s⁻¹ | hFAP Binding assay k(on) [3]: 8800000000 M⁻¹ s⁻¹ | Kd [3]: 0.016 nM | IC50 [4]: 180 nM | solubility [5]: 5.8 µM (≈ 2.63 µg/mL) | rHep CLint [6]: 72 μL/min/1E6 | microsomal CLint [7]: 140 µL/min/mg

N#C[C@@H]1CSCN1C(=O)CNC(=O)c1ccnc2ccc(N3CC[C@@H](F)C3)cc12 [Example 52, N-(2-((R)-4-Cyanothiazolidin-3-yl)-2-oxoethyl)-6-((R)-3-fluoropyrrolidin-1-yl)quinoline-4-carboxamide]
IC50 [1]: 0.2 nM | IC50 [2]: 0.045 nM | hFAP Binding assay k(off) [3]: 0.00019 s⁻¹ | hFAP Binding assay k(on) [3]: 6800000 M⁻¹ s⁻¹ | Kd [3]: 0.044 nM | IC50 [4]: 400 nM | solubility [5, 8]: 57 µM (≈ 23.6 µg/mL) | rHep CLint [6]: 21 μL/min/1E6 | microsomal CLint [7, 9]: 22 µL/min/mg

N#C[C@@H]1CSCN1C(=O)CNC(=O)c1ccnc2ccc(-c3cccnc3)cc12 [Example 126, (R)—N-(2-(4-Cyanothiazolidin-3-yl)-2-oxoethyl)-6-(pyridin-3-yl)quinoline-4-carboxamide]
IC50 [1]: 0.32 nM | IC50 [2]: 0.081 nM | hFAP Binding assay k(off) [3]: 0.00021 s⁻¹ | hFAP Binding assay k(on) [3]: 1800000 M⁻¹ s⁻¹ | Kd [3]: 0.11 nM | IC50 [4]: 260 nM | solubility [5, 8]: 400 µM (≈ 161 µg/mL) | rHep CLint [6]: 10 μL/min/1E6 | microsomal CLint [7, 9]: 16 µL/min/mg
